Literature values, collected in patent publication EP4778980A1, “SILICONE MATERIAL, SILICONE TUBE, IMPLANT AND PREPARATION METHOD THEREFOR, ROD CORE, PERFORATED IMPLANT AND PREPARATION METHOD THEREFOR AND USE THEREOF” (SHENYANG XINGHUA PHARMACEUTICAL TECHNOLOGY CO., LTD, priority 2023, dated 2025).

Cc1nc2n(c(=O)c1CCN1CCC(c3noc4cc(F)ccc34)CC1)CCCC2O (stereo not shown) [Paliperidone]
solubility: Paliperidone (98% purity) Mw = 426.48, 0.05 mg/ml
